Columns and labels:
[1] = target: human Orexin type 2 receptors (Homo sapiens (Human), UniProt O43614); experiment: Scintillation Proximity Assay (SPA) binding assay, [3H]EMPA displacement, HEK-hOX2 membranes
[2] = target: human Orexin type 1 receptors (Homo sapiens (Human), UniProt O43613); experiment: Scintillation Proximity Assay (SPA) binding assay, [3H]SB-674042 displacement, CHO-hOX1 membranes
Chain of human Orexin type 1 receptors (O43613 whole entry): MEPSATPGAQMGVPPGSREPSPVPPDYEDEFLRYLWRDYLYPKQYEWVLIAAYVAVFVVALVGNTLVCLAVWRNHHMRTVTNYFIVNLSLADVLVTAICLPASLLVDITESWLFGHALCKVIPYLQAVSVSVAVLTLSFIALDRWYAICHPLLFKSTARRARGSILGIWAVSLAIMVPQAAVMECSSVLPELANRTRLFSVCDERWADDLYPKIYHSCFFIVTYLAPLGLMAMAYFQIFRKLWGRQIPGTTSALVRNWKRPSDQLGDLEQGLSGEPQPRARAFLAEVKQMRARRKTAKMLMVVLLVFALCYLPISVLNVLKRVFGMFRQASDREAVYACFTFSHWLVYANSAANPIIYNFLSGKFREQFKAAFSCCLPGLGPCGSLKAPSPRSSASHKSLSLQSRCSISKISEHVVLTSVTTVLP

Chain of human Orexin type 2 receptors (O43614 whole entry): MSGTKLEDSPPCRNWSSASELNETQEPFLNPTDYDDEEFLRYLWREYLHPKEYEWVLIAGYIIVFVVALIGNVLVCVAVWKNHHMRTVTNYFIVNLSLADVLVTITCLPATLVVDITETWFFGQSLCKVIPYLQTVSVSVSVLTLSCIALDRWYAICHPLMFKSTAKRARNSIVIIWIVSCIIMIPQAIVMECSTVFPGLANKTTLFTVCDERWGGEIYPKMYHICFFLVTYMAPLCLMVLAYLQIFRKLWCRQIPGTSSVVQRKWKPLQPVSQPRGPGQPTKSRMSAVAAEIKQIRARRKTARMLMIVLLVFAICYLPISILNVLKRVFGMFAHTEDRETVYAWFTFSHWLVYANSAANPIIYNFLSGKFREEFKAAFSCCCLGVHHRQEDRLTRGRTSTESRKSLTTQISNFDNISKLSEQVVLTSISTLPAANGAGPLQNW

SMILES: Cc1ccc(OCC2[C@H](C)C3CC(C3)N2C(=O)c2nc(C)ccc2-n2nccn2)nc1 (mixture of isomers) [Example 100, cis-4-methyl-2-[6-methyl-3-(2H-1,2,3-triazol-2-yl)pyridine-2-carbonyl]-3-{[(5-methylpyridin-2-yl)oxy]methyl}-2-azabicyclo[3.1.1]heptane]
- OX2 pKi (SPA binding) ([1]; Table 1, [3H]EMPA 2 nM): 5.96
- OX1 pKi (SPA binding) ([2]; Table 1, [3H]SB-674042 2 nM): 7.03

SMILES: Cc1ccc(-n2nccn2)c(C(=O)N2C3CC(C3)[C@@H](C)C2CNc2cnc3ccccc3n2)n1 (single isomer, unassigned) [Example 159, N-{[(3S,4R) or (3R,4S)-4-methyl-2-[6-methyl-3-(2H-1,2,3-triazol-2-yl)pyridine-2-carbonyl]-2-azabicyclo[3.1.1]heptan-3-yl]methyl}quinoxalin-2-amine]
- OX2 pKi (SPA binding) ([1]; Table 2, [3H]EMPA 2 nM): 4.59
- OX1 pKi (SPA binding) ([2]; Table 2, [3H]SB-674042 2 nM): 6.84

SMILES: C[C@@H]1C2CC(C2)N(C(=O)c2cc(Cl)ccc2-n2nccn2)C1CNc1nc2cccnc2s1 (single isomer, unassigned) [Example 236, N-{[(3R,4S) or (3S,4R)-2-[5-chloro-2-(2H-1,2,3-triazol-2-yl)benzoyl]-4-methyl-2-azabicyclo[3.1.1]heptan-3-yl]methyl}-[1,3]thiazolo[5,4-b]pyridin-2-amine]
- OX2 pKi (SPA binding) ([1]; Table 2, [3H]EMPA 2 nM): 5.7
- OX1 pKi (SPA binding) ([2]; Table 2, [3H]SB-674042 2 nM): 8.99

SMILES: C[C@@H]1C2CC(C2)N(C(=O)c2cc(F)ccc2-n2nccn2)C1CNc1cnc2ccccc2n1 (single isomer, unassigned) [Example 189, N-({(3R,4S) or (3S,4R)2-[5-fluoro-2-(2H-1,2,3-triazol-2-yl)benozyl]-4-methyl-2-azabicyclo[3.1.1]heptan-3-yl}methyl)quinoxalin-2-amine]
- OX2 pKi (SPA binding) ([1]; Table 2, [3H]EMPA 2 nM): 5.92
- OX1 pKi (SPA binding) ([2]; Table 2, [3H]SB-674042 2 nM): 8.51

SMILES: Cc1nc(C(=O)N2C3CC(C3)[C@@H](C)C2COc2ccc(F)cc2)c(-c2cnccn2)s1 (mixture of isomers) [Example 136, cis-3-[(4-fluorophenoxy)methyl]-4-methyl-2-[2-methyl-5-(pyrazin-2-yl)-1,3-thiazole-4-carbonyl]-2-azabicyclo[3.1.1]heptane]
- OX2 pKi (SPA binding) ([1]; Table 2, [3H]EMPA 2 nM): 5.92
- OX1 pKi (SPA binding) ([2]; Table 2, [3H]SB-674042 2 nM): 7.26

SMILES: Cc1ccc(OCC2CC3CC(C3)N2C(=O)c2nc(C)sc2-c2ccccc2)cc1 (stereo not drawn) [Example 48]
- OX2 pKi (SPA binding) ([1]; Table 1, [3H]EMPA 2 nM): 6.53
- OX1 pKi (SPA binding) ([2]; Table 1, [3H]SB-674042 2 nM): 7.45

SMILES: C[C@@H]1C2CC(C2)N(C(=O)c2cc(C#N)ccc2-n2nccn2)C1CNc1nc2cccnc2s1 (stereo partly drawn) [Example 231, cis-3-{4-methyl-3-[({[1,3]thiazolo[5,4-b]pyridin-2-yl}amino)methyl]-2-azabicyclo[3.1.1]heptane-2-carbonyl}-4-(2H-1,2,3-triazol-2-yl)benzonitrile]
- OX2 pKi (SPA binding) ([1]; Table 2, [3H]EMPA 2 nM): 5.21
- OX1 pKi (SPA binding) ([2]; Table 2, [3H]SB-674042 2 nM): 8.2

SMILES: C[C@@H]1C2CC(C2)N(C(=O)c2cc(Cl)ccc2-n2nccn2)C1CNc1nc2cccnc2s1 (mixture of isomers) [Example 234, cis-N-({2-[5-chloro-2-(2H-1,2,3-triazol-2-yl)benzoyl]-4-methyl-2-azabicyclo[3.1.1]heptan-3-yl}methyl)-[1,3]thiazolo[5,4-b]pyridin-2-amine]
- OX2 pKi (SPA binding) ([1]; Table 2, [3H]EMPA 2 nM): 5.46
- OX1 pKi (SPA binding) ([2]; Table 2, [3H]SB-674042 2 nM): 8.45

SMILES: Cc1nc(C(=O)N2C3CC(C3)[C@@H](C)C2COc2ccc(F)cc2)c(-c2ncccn2)s1 (stereo partly drawn) [Example 94, cis-3-[(4-fluorophenoxy)methyl]-4-methyl-2-[2-methyl-5-(pyrimidin-2-yl)-1,3-thiazole-4-carbonyl]-2-azabicyclo[3.1.1]heptane]
- OX2 pKi (SPA binding) ([1]; Table 1, [3H]EMPA 2 nM): 6.35
- OX1 pKi (SPA binding) ([2]; Table 1, [3H]SB-674042 2 nM): 8.04

SMILES: Cc1ccc(-c2nccs2)c(C(=O)N2C3CC(C3)[C@H](C)C2COc2ccc(F)cc2)c1 (mixture of isomers) [Example 101, trans-3-[(4-fluorophenoxy)methyl]-4-methyl-2-[5-methyl-2-(1,3-thiazol-2-yl)benzoyl]-2-azabicyclo[3.1.1]heptane]
- OX2 pKi (SPA binding) ([1]; Table 1, [3H]EMPA 2 nM): 6.15
- OX1 pKi (SPA binding) ([2]; Table 1, [3H]SB-674042 2 nM): 8.02

SMILES: C[C@@H]1C2CC(C2)N(C(=O)c2cc(C#N)ccc2-n2nccn2)C1CNc1nc2ccc(F)cc2s1 (single isomer, unassigned) [Example 177, 3-[(3R,4S) or (3S,4R)-3-{[(6-fluoro-1,3-benzothiazol-2-yl)amino]methyl}-4-methyl-2-azabicyclo[3.1.1]heptane-2-carbonyl]-4-(2H-1,2,3-triazol-2-yl)benzonitrile]
- OX2 pKi (SPA binding) ([1]; Table 2, [3H]EMPA 2 nM): 6.46
- OX1 pKi (SPA binding) ([2]; Table 2, [3H]SB-674042 2 nM): 8.95

SMILES: Cc1ccc(-n2nccn2)c(C(=O)N2C3CC(C3)[C@@H](C)C2CNc2cnc3cc(F)c(F)cc3n2)n1 (mixture of isomers) [Example 201, cis-6.7-difluoro-N-({4-methyl-2-[6-methyl-3-(2H-1,2,3-triazol-2-yl)pyridine-2-carbonyl]-2-azabicyclo[3.1.1]heptan-3-yl}methyl)quinoxalin-2-amine]
- OX2 pKi (SPA binding) ([1]; Table 2, [3H]EMPA 2 nM): 6.55
- OX1 pKi (SPA binding) ([2]; Table 2, [3H]SB-674042 2 nM): 7.97

SMILES: Cc1nc(C(=O)N2C3CC(C3)[C@@H](C)C2CNc2nc3ccc(F)cc3s2)c(-c2ncccn2)s1 (mixture of isomers) [Example 162, cis-6-fluoro-N-({4-methyl-2-[2-methyl-5-(pyrimidin-2-yl)-1,3-thiazole-4-carbonyl]-2-azabicyclo[3.1.1]heptan-3-yl]methyl)-1,3-benzothiazol-2-amine]
- OX2 pKi (SPA binding) ([1]; Table 2, [3H]EMPA 2 nM): 5.59
- OX1 pKi (SPA binding) ([2]; Table 2, [3H]SB-674042 2 nM): 8.83

SMILES: Cc1ccc(-c2ncccn2)c(C(=O)N2C3CC(C3)[C@@H](C)C2CNc2cnc(C(F)(F)F)cn2)n1 (single isomer, unassigned) [Example 250, N-{[(3R,4S) or (3S,4R)-4-methyl-2-[6-methyl-3-(pyrimidin-2-yl)pyridine-2-carbonyl]-2-azabicyclo[3.1.1]heptan-3-yl]methyl}-5-(trifluoromethyl)pyrazin-2-amine]
- OX2 pKi (SPA binding) ([1]; Table 2, [3H]EMPA 2 nM): 4.85
- OX1 pKi (SPA binding) ([2]; Table 2, [3H]SB-674042 2 nM): 7.9

SMILES: C[C@H]1C2CC(C2)N(C(=O)c2cc(F)ccc2-n2nccn2)C1COc1ccc(F)cc1 (mixture of isomers) [Example 128, trans-2-[5-fluoro-2-(2H-1,2,3-triazol-2-yl)benzoyl]-3-{(4-fluorophenoxy)methyl]-4-methyl-2-azabicyclo[3.1.1]heptane]
- OX2 pKi (SPA binding) ([1]; Table 2, [3H]EMPA 2 nM): 5.61
- OX1 pKi (SPA binding) ([2]; Table 2, [3H]SB-674042 2 nM): 6.85

SMILES: Cc1nc(C(=O)N2C(COc3ncc4ccn(C)c4n3)CC3CC2C3)c(-c2ccccc2)s1 (stereo not drawn) [Example 57]
- OX2 pKi (SPA binding) ([1]; Table 1, [3H]EMPA 2 nM): 6.86
- OX1 pKi (SPA binding) ([2]; Table 1, [3H]SB-674042 2 nM): 7.35

SMILES: Cc1ccc(-c2nccs2)c(C(=O)N2C3CC(C3)[C@H](C)C2COc2ccc(F)cc2)n1 (mixture of isomers) [Example 106, trans-3-[(4-fluorophenoxy)methyl]-4-methyl-2-[6-methyl-3-(1,3-thiazol-2-yl)pyridine-2-carbonyl]-2-azabicyclo[3.1.1]heptane]
- OX2 pKi (SPA binding) ([1]; Table 1, [3H]EMPA 2 nM): 6.12
- OX1 pKi (SPA binding) ([2]; Table 1, [3H]SB-674042 2 nM): 8.16

SMILES: Cc1nc(C(=O)N2C(COc3cccc(F)c3)CC3CC2C3)c(-c2ccccc2)s1 (stereo not drawn) [Example 44]
- OX2 pKi (SPA binding) ([1]; Table 1, [3H]EMPA 2 nM): 6.38
- OX1 pKi (SPA binding) ([2]; Table 1, [3H]SB-674042 2 nM): 7.15

SMILES: Cc1ccc(-n2nccn2)c(C(=O)N2C3CC(C3)[C@H](C)C2COc2ccc(Cl)cc2)n1 (single isomer, unassigned) [Example 120, (3R,4R) or (3S,4S)-3-[(4-chlorophenoxy)methyl]-4-methyl-2-[6-methyl-3-(2H-1,2,3-triazol-2-yl)pyridine-2-carbonyl]-2-azabicyclo[3.1.1]heptane]
- OX2 pKi (SPA binding) ([1]; Table 2, [3H]EMPA 2 nM): 5.98
- OX1 pKi (SPA binding) ([2]; Table 2, [3H]SB-674042 2 nM): 8

SMILES: Cc1ccc(-n2nccn2)c(C(=O)N2C3CC(C3)[C@@H](C)C2CNc2ccc3ccccc3n2)n1 (mixture of isomers) [Example 161, cis-N-({4-methyl-2-[6-methyl-3-(2H-1,2,3-triazol-2-yl)pyridine-2-carbonyl]-2-azabicyclo[3.1.1]heptan-3-yl}methyl)quinolin-2-amine]
- OX2 pKi (SPA binding) ([1]; Table 2, [3H]EMPA 2 nM): 5.2
- OX1 pKi (SPA binding) ([2]; Table 2, [3H]SB-674042 2 nM): 7.32

SMILES: Cc1ccc(-n2nccn2)c(C(=O)N2C3CC(C3)[C@H](C)C2CNc2nc3ccc(F)cc3s2)n1 (stereo partly drawn) [Example 147]
- OX2 pKi (SPA binding) ([1]; Table 2, [3H]EMPA 2 nM): 6.66
- OX1 pKi (SPA binding) ([2]; Table 2, [3H]SB-674042 2 nM): 7.57

SMILES: Cc1ccc(-n2nccn2)c(C(=O)N2C3CC(C3)[C@@H](C)C2CNc2nc3ccc(F)cc3s2)n1 (mixture of isomers) [Example 152, cis-6-fluoro-N-({4-methyl-2-[6-methyl-3-(2H-1,2,3-triazol-2-yl)pyridine-2-carbonyl]-2-azabicyclo[3.1.1]heptan-3-yl}methyl)-1,3-benzothiazol-2-amine]
- OX2 pKi (SPA binding) ([1]; Table 2, [3H]EMPA 2 nM): 6.1
- OX1 pKi (SPA binding) ([2]; Table 2, [3H]SB-674042 2 nM): 8.68

SMILES: C[C@@H]1C2CC(C2)N(C(=O)c2c(F)cccc2-n2nccn2)C1CNc1cnc(C(F)(F)F)cn1 (stereo partly drawn) [Example 253]
- OX2 pKi (SPA binding) ([1]; Table 2, [3H]EMPA 2 nM): 5
- OX1 pKi (SPA binding) ([2]; Table 2, [3H]SB-674042 2 nM): 7.88

SMILES: Cc1ccc(-n2nccn2)c(C(=O)N2C3CC(C3)[C@@H](C)C2CNc2cccc(C(F)(F)F)n2)n1 (mixture of isomers) [Example 197, cis-N-({4-methyl-2-[6-methyl-3-(2H-1,2,3-triazol-2-yl)pyridine-2-carbonyl]-2-azabicyclo[3.1.1]heptan-3-yl}methyl)-6-(trifluoromethyl)pyridin-2-amine]
- OX2 pKi (SPA binding) ([1]; Table 2, [3H]EMPA 2 nM): 5.76
- OX1 pKi (SPA binding) ([2]; Table 2, [3H]SB-674042 2 nM): 6.99

SMILES: C[C@@H]1C2CC(C2)N(C(=O)c2cc(Cl)ccc2-n2nccn2)C1CNc1cnc2cc(F)ccc2n1 (mixture of isomers) [Example 207, cis-N-({2-[5-chloro-2-(2H-1,2,3-triazol-2-yl)benzoyl]-4-methyl-2-azabicyclo[3.1.1]heptan-3-yl}methyl)-6-fluoroquinoxalin-2-amine]
- OX2 pKi (SPA binding) ([1]; Table 2, [3H]EMPA 2 nM): 6.44
- OX1 pKi (SPA binding) ([2]; Table 2, [3H]SB-674042 2 nM): 8.46

SMILES: Cc1nc(C(=O)N2C(COc3ccc(F)c(F)c3)CC3CC2C3)c(-c2ccccc2)s1 (stereo not drawn) [Example 47]
- OX2 pKi (SPA binding) ([1]; Table 1, [3H]EMPA 2 nM): 6.91
- OX1 pKi (SPA binding) ([2]; Table 1, [3H]SB-674042 2 nM): 7.61

SMILES: Cc1nc(C(=O)N2C(COc3cc4ccccc4cn3)CC3CC2C3)c(-c2ccccc2)s1 (stereo not drawn) [Example 38]
- OX2 pKi (SPA binding) ([1]; Table 1, [3H]EMPA 2 nM): 6.9
- OX1 pKi (SPA binding) ([2]; Table 1, [3H]SB-674042 2 nM): 7.61

Source: patent US11660293B2, “Substituted 2-azabicyclo[3.1.1]heptane and 2-azabicyclo[3.2.1]octane derivatives as orexin receptor antagonists” (Chronos Therapeutics Limited, priority 2017, dated 2023)
